Results as given in US20070232588A1, “Anti-parasitic and/or anti-viral and/or anti-microbial compositions” (priority 2004, published 2007).
≈ marks a conversion by molar mass, not a printed value.

Tests used:
[1] = Countercurrent distribution, KrKb (partition coefficient x dissociation constant); type: physicochemical
Description: The diverse tertiary alkaloids contained in the basic extract of Example 1, were separated by countercurrent distribution, with dichloromethane as the stationary phase and an aqueous buffer with an incrementally decreasing pH (mobile phase). The alkaloids were recovered from the aqueous phase by extraction with dichloromethane.
The equipment used was a Craig type Post apparatus made up of 200 glass tubes (with 10 ml volumes for the lower phase and 10 ml volumes for the upper phase).

[2] = tested on: Leishmania infantum promastigotes; experiment: In vitro leishmanicidal activity, MTT assay; type: cell-based; conditions: for Fold Increase (IC50), voacamine with respect to the basic extract: ratio of IC50
Description: Preparation of the anti-leishmanial compositions: The total plant extract was dissolved in DMSO as a 50 mg/mL stock. The purified alkaloid, voacamine, was dissolved in 50% DMSO at a 3 mg/mL stock.
In vitro drug testing. […] 10 μL of 3-(4,5-dimethylthiazol-2-yl)-2,5-diphenyl-2H-tetrazol bromide (MTT, Sigma, 5 mg/mL in PBS) were added to each well and plates were incubated for an additional period of 5 hours. Only viable cells are able to reduce the MTT compound to produce water-insoluble formazan crystals of a purple color. These crystals were dissolved by adding 100 μL of SDS 20% and incubating overnight at 37° C. The absorbance was subsequently read at 540 nanometers using a microplate reader (Beckman Biomek 2000). Cell survival was determined by dividing the absorbance of the compound at a given concentration by the absorbance of control cells grown in the absence of drug. The 50% inhibitory concentration (IC50) values were graphically determined after plotting the percentage of growth as a function of drug concentration. All experiments were performed in duplicate.

[3] = tested on: Plasmodium falciparum Strain W2; experiment: In vitro antiplasmodial activity (IC50), strain W2; type: cell-based
Description: (§1) The basic extracts obtained as in Example 1, from both the root and stem bark with a yield of 1.9% were used to carry out the in vitro antiplasmodial activity study on known Plasmodium falciparum strains.
(§2) Plasmodium falciparum strains D6 and W2 were used throughout this investigation. Laboratory isolates of P. falciparum were grown under controlled conditions in culture medium containing leukocyte-free red blood cells (RBCs) at 5% hematocrit (Tager and Jensen, 1976). Briefly, parasites were allowed to infect RBCs in a media consisting of RPMI 1640 plus 25 mM Hepes, 0.25 glucose, 0.2% sodium bicarbonate, 0.5% Albumax II, and 50 mg/liter hypoxanthine and grown in 5% CO2 at 37° C. […]
(§3) Assessment of parasite development and morphology. Parasite development and morphology were evaluated by microscopic examination of Giemsa-stained thin blood smears at 24, 48, and 72 hour intervals in the presence of increasing doses of the alkaloids dissolved as a stock solution in 10% (v/v) dimethylsulphoxide (DMSO) in RPMI 1640. […] Smears from drug-free cultures were always used as controls Parasitemia was measured by counting blood cells and expressed as percentage of total parasitized erythrocytes (Table 3).

[4] = tested on: Plasmodium falciparum Strain D6; experiment: In vitro antiplasmodial activity (IC50), strain D6; type: cell-based
Description: as §1, §2, §3

## C/C=C1/CN2[C@H]3C[C@@H]1[C@@H](CO)[C@@H]2Cc1c3n(C)c2ccccc12 [affinisine]
[1]
  KrKb (Kr partition coefficient aqueous phase/organic phase, Kb dissociation constant): 7×10^−10

## N-demethylvoacamine
[1]
  KrKb (Kr partition coefficient aqueous phase/organic phase, Kb dissociation constant): 3.5×10^−11

## CC=C1CN(C)C2Cc3c([nH]c4ccccc34)C(=O)CC1C2CO (stereo not drawn) [16-epi-affinine]
[1]
  KrKb (Kr partition coefficient aqueous phase/organic phase, Kb dissociation constant): 2.5×10^−9

## CC=C1CN(C)C2Cc3c([nH]c4ccccc34)C(c3cc4[nH]c5c(c4cc3OC)CCN3CC4CC(CC)C3C5(C(=O)OC)C4)CC1C2C(=O)OC (stereo not drawn) [Ex. 2, voacamine]
[2]; Leishmania infantum, 72 h
  IC90: 7 µg/mL (≈ 9.93 µM)
[2]; Leishmania infantum, 72 h, read-out: IC50 (concentration required to kill 50% of the parasites)
  IC50: 3.3 µg/mL (≈ 4.68 µM)
[2]; before 72 hours
  concentration producing complete cellular destruction: 10 µg/mL
[2]; listed as Voacamine
  Fold Increase (IC50), voacamine with respect to the basic extract: 20.7 fold
[2]; listed as voacamine
  Fold Increase (IC50), voacamine with respect to the basic extract: 20 fold
[2]; ratio of IC90
  Fold Increase (IC90), voacamine with respect to the basic extract: 15.7 fold
[3]
  IC50: 0.29 µg/mL (≈ 0.411 µM)
[4]
  IC50: 0.238 µg/mL (≈ 0.338 µM)

## C/C=C1/CN2[C@H]3Cc4c(n(C)c5ccccc45)[C@@H]2C[C@@H]1[C@@]3(CO)C(=O)OC [voachalotine]
[1]
  KrKb (Kr partition coefficient aqueous phase/organic phase, Kb dissociation constant): 2×10^−11
